# According to the supplement of paper PMC13380429:
# Assays:
# Conditions in all cases: 72 h
# [1] = tested on: HepG2; assay: drug sensitivity score (DSS) for viability; higher = more toxic; extreme values may be limits of the assay
# [2] = tested on: Caco-2; assay: as above
# [3] = tested on: U2OS; assay: as above
# [4] = tested on: Calu-3; assay: as above
# [5] = tested on: Vero E6; assay: as above
# [6] = tested on: HepG2; assay: cell viability relative to DMSO; higher = less toxic
# [7] = tested on: Caco-2; assay: as above
# [8] = tested on: U2OS; assay: as above
# [9] = tested on: Calu-3; assay: as above
# [10] = tested on: Vero E6; assay: as above
# [11] = tested on: HepG2; assay: relative viability EC50 (midpoint between 100% and the lowest measured viability); higher = less toxic
# [12] = tested on: Caco-2; assay: as above
# [13] = tested on: U2OS; assay: as above
# [14] = tested on: Calu-3; assay: as above
# [15] = tested on: Vero E6; assay: as above
Structure (SMILES),drug sensitivity score [1],drug sensitivity score [2],drug sensitivity score [3],drug sensitivity score [4],drug sensitivity score [5],cell viability ([6]; 1 nM),cell viability ([6]; 10 nM),cell viability ([6]; 100 nM),cell viability ([6]; 1000 nM),cell viability ([6]; 10000 nM),cell viability ([7]; 1 nM),cell viability ([7]; 10 nM),cell viability ([7]; 100 nM),cell viability ([7]; 1000 nM),cell viability ([7]; 10000 nM),cell viability ([8]; 1 nM),cell viability ([8]; 10 nM),cell viability ([8]; 100 nM),cell viability ([8]; 1000 nM),cell viability ([8]; 10000 nM),cell viability ([9]; 1 nM),cell viability ([9]; 10 nM),cell viability ([9]; 100 nM),cell viability ([9]; 1000 nM),cell viability ([9]; 10000 nM),cell viability ([10]; 1 nM),cell viability ([10]; 10 nM),cell viability ([10]; 100 nM),cell viability ([10]; 1000 nM),cell viability ([10]; 10000 nM),relative viability EC50 [11],relative viability EC50 [12],relative viability EC50 [13],relative viability EC50 [14],relative viability EC50 [15]
COC(=O)Nc1ccc(-c2nc(N3CCOCC3)c3cnn(C4CCN(Cc5cccnc5)CC4)c3n2)cc1 [WYE-687],10.1,11.5,8.2,14.2,6.9,97.5%,111%,92.8%,54%,17.6%,93.6%,93.9%,88%,47.8%,21.6%,104%,97%,100%,74.2%,19%,100%,95.5%,79.2%,37.2%,20.4%,94.2%,95.9%,89.3%,71.3%,37.6%,0.818 µM,0.496 µM,1.36 µM,0.271 µM,0.925 µM
CCCC(=O)Nc1ccc(OCC(O)CNC(C)C)c(C(C)=O)c1 (stereo not given) [acebutolol],0,0,0,0,0,106%,88.6%,104%,88.7%,104%,102%,94.8%,93%,104%,96.1%,90.4%,96.3%,95.2%,98%,101%,95.3%,104%,104%,117%,88.5%,88.2%,96.9%,93.8%,81.9%,95.6%,> 10 µM,> 10 µM,> 10 µM,> 10 µM,> 10 µM
CC(=O)c1ccc2c(c1)N(CCCN(C)C)c1ccccc1S2 [acepromazine],0,0,0,0.3,0,98.3%,96.4%,101%,91.9%,94.7%,104%,93.1%,99.6%,86.4%,102%,101%,95%,100%,93.9%,95.7%,111%,102%,92.9%,96.1%,83.5%,101%,101%,99.4%,99.4%,89.2%,> 10 µM,> 10 µM,> 10 µM,> 10 µM,> 10 µM
Fc1ccc(-c2cncc(CN3CCN(c4cccc5c4OCCO5)CC3)c2)cc1 [adoprazine],0,0,0,0,0,104%,90.6%,92.8%,106%,91.7%,91%,102%,98.5%,109%,100%,98.2%,99.7%,92.1%,104%,95.4%,102%,105%,93.8%,94.2%,104%,103%,98.6%,93.9%,98.8%,105%,> 10 µM,> 10 µM,> 10 µM,> 10 µM,> 10 µM
COc1cccc2c1C(=O)c1c(O)c3c(c(O)c1C2=O)C[C@@](O)(/C(CO)=N/NC(=O)CCCCCN1C(=O)C=CC1=O)C[C@@H]3O[C@H]1C[C@H](N)[C@H](O)[C@H](C)O1 [aldoxorubicin],21.6,11.7,14.2,13.2,5.8,97.4%,94%,50.3%,20.3%,5.8%,104%,102%,93.2%,41.4%,30.9%,102%,98.4%,94.8%,28.5%,6%,93.4%,98.1%,75.7%,45.1%,28%,105%,101%,103%,82%,41.9%,0.102 µM,0.367 µM,0.513 µM,0.233 µM,1.38 µM
Cc1c(N)c(=O)n(-c2ccccc2)n1C [ampyrone],0,0,0,0,0,96.5%,110%,105%,111%,106%,103%,92%,100%,96.7%,95%,97.6%,94.3%,100%,95.8%,102%,138%,99.9%,98.6%,96.4%,98.6%,101%,104%,99.2%,95.4%,90.5%,> 10 µM,> 10 µM,> 10 µM,> 10 µM,> 10 µM
CCCC(CCC)C(=O)O[C@H]1C[C@H]2CC[C@@H](C1)[N+]2(C)C [anisotropine],0,0,0,0,0,102%,96.9%,99%,90.2%,102%,94.8%,95.2%,86.6%,97.8%,99.1%,101%,99%,90.3%,99.9%,90.7%,94.7%,107%,93.9%,97.6%,92%,100%,96.1%,97.8%,96.6%,100%,> 10 µM,> 10 µM,> 10 µM,> 10 µM,> 10 µM
N#CC1(c2ccc(NC(=O)c3cccnc3NCc3ccncc3)cc2)CCCC1 [apatinib],1.9,0,0,0,0,103%,105%,107%,89.5%,77.8%,92.3%,94.1%,93.5%,101%,94.1%,97.4%,104%,98%,99.2%,99.6%,92.9%,94.5%,104%,97.5%,104%,96.5%,92%,98.3%,97.1%,109%,> 10 µM,> 10 µM,> 10 µM,> 10 µM,> 10 µM
CC[C@@H]1/C=C(\C)C[C@H](C)C[C@H](OC)[C@H]2O[C@@](O)(C(=O)C(=O)N3CCCC[C@H]3C(=O)O[C@H](/C(C)=C/[C@@H]3CC[C@@H](O)[C@H](OC)C3)[C@H](C)[C@@H](O)CC1=O)[C@H](C)C[C@@H]2OC [ascomycin],0,0.2,0,0,0,124%,109%,112%,96%,104%,117%,97.8%,95%,100%,84.5%,96%,104%,97.8%,98.4%,95.2%,98.3%,98.9%,90.8%,107%,107%,107%,100%,98.1%,93.5%,102%,> 10 µM,> 10 µM,> 10 µM,> 10 µM,> 10 µM
CCCCCCCCCCCCCCCCCCN(CCCCCCCCCCCCCCCCCC)CCCN(CCO)CCO [avridine],0,0,0,0,0,109%,98.1%,98%,106%,108%,106%,97%,90.4%,105%,146%,95.7%,101%,98.9%,104%,100%,91.5%,101%,101%,95.7%,108%,104%,101%,106%,98.5%,102%,> 10 µM,> 10 µM,> 10 µM,> 10 µM,> 10 µM
CCC1(C)CC(=O)NC(=O)C1 [bemegride],0,0,0,0,0,102%,101%,108%,90.8%,112%,102%,90.1%,90.8%,94.8%,98.8%,100%,96.6%,98.6%,99.8%,102%,92.2%,114%,101%,105%,98.1%,98.2%,102%,94.6%,99.1%,112%,> 10 µM,> 10 µM,> 10 µM,> 10 µM,> 10 µM
O=C(O)Cc1ccc(OCc2ccccc2)c(Cl)c1 [benzofenac],0,0,0,0,0,98.5%,92.7%,94.3%,87.1%,93.8%,96.9%,114%,112%,104%,107%,98.2%,98.2%,99.3%,100%,94.4%,97.6%,109%,98.9%,111%,93.4%,103%,105%,106%,99.6%,96.1%,> 10 µM,> 10 µM,> 10 µM,> 10 µM,> 10 µM
O=C(OOC(=O)c1ccccc1)c1ccccc1 [benzoyl-peroxide],0,0,0,0,0,92.1%,104%,99.1%,110%,107%,102%,87.9%,96.6%,91.2%,99.4%,98%,95.2%,99.3%,97.6%,94.1%,99%,95.8%,103%,99%,103%,95.6%,98.8%,92%,95%,105%,> 10 µM,> 10 µM,> 10 µM,> 10 µM,> 10 µM
